Among the data in US5807851A, “2,3-Benzodiazepine Derivatives as non-competitive AMPA” (Egis Gyogyszergyar Rt., priority 1997, dated 1998) are IC50 values, retold here.

pIC50: −log10 of the molar value.

The test system of this assay is AMPA receptor. Briefly: In vitro kainate antagonistic activity: retinal spreading depression on isolated chicken retina. It counts as cell-based. As to conditions: isolated chicken retina preparations; spreading depression developed with 5 microM of kainate; at least 3 concentrations. The protocol:
Antagonizing the effect of kainate (in vitro test)
The in vitro activity of the compounds was determined on isolated chicken retina preparations /M. J. Sheardown, Brain Res., 607, 189 (1993)/. The spreading depression was developped with 5 microM of kainate (the chemical name of kainic acid is 2-carboxy-4-isopropenyl-3-pyrrolidine-acetic acid), and the IC50 values were determined according to Sheardown. The compounds were tested in at least 3 concentrations. Compounds having AMPA antagonistic activity inhibit the response to the kainate having AMPA receptor agonistic activity, and the inhibition obtained depends on the concentration of the compounds.
`CNC(=O)N1N=C(c2ccc(N)cc2)c2cc(Cl)ccc2CC1C` (stereo not shown) [Example 8, 1-(4-Aminophenyl)-8-chloro-4-methyl-3-methylcarbamoyl-4,5-dihydro-3H-2,3-benzodiazepine] showed a negative-log IC50 (pIC50) of 5.34.
Under `CC(=O)N1N=C(c2ccc(N)cc2)c2cc(Cl)c(Cl)cc2CC1C` (stereo not shown) [Example 10, 3-Acetyl-1-(4-aminophenyl)-7,8-dichloro-4-methyl-4,5-dihydro-3H-2,3-benzodiazepine] stands 5.60.
The compound `CC(=O)N1N=C(c2ccc(N)cc2)c2cc(Cl)ccc2CC1C` (stereo not shown) [Example 6, 3-Acetyl-1-(4-aminophenyl)-8-chloro-4-methyl-4,5-dihydro-3H-2,3-benzodiazepine] had a pIC50 of 5.09.
With `CC(=O)N1N=C(c2ccc(N)cc2)c2ccc(Cl)cc2CC1C` (stereo not shown) [Example 2, 3-Acetyl-1-(4-aminophenyl)-7-chloro-4-methyl-4,5-dihdyro-3H-2,3-benzodiazepine] the figure was 5.49; with `CNC(=O)N1N=C(c2ccc(N)cc2)c2ccc(Cl)cc2CC1C` (stereo not shown) [Example 4, 1-(4-Aminophenyl)-7-chloro-4-methyl-3-(methylcarbamoyl)-4,5-dihydro-3H-2,3-benzodiazepine], 5.44; with `CC1=NN=C(c2ccc(N)cc2)c2cc3c(cc2C1)OCO3` [A, reference compound], 5.02.
With `CNC(=O)N1N=C(c2ccc(N)cc2)c2cc(Cl)c(Cl)cc2CC1C` (stereo not shown) [Example 12, 1-(4-Aminophenyl)-7,8-dichloro-4-methyl-3-methylcarbamoyl-4,5-dihydro-3H-2,3-benzodiazepine] the figure was 5.92.
